Here are results for 18 compounds from US10961222B2, “Chemical compound of isocitrate dehydrogenase inhibitor, and application thereof” (NANJING SANHOME PHARMACEUTICAL CO., LTD., priority 2016, dated 2021).

By IC50 is commonly meant the concentration that gives 50% inhibition.

The target of the assay is T1, IDH2-R140Q mutant enzyme (Homo sapiens, UniProt P48735, R140Q).
T1 construct: purchased BPS 71100-1
T1 sequence (P48735 40-452 R140Q): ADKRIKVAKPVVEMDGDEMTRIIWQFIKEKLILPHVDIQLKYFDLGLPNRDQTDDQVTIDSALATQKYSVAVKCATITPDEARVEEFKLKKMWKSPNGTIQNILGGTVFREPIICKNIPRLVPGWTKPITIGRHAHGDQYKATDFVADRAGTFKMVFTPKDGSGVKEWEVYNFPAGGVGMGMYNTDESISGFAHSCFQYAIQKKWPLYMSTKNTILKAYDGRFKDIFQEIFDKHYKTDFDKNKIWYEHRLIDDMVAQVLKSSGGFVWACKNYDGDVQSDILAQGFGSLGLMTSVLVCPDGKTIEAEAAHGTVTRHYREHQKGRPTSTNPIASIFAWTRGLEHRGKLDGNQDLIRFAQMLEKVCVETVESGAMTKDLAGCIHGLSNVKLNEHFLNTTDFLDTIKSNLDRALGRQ
Nature of the assay: Inhibitory activity of compounds on IDH2-R140Q enzyme in vitro (diaphorase/resazurin fluorescence). The format is biochemical. The conditions noted are these: IDH2-R140Q, pre-incubated 16 h with enzyme and NADPH, reaction 1 h with α-ketoglutarate; read-out: R140Q IC50. The method, then: Instrument: SpectraMax M3 Multi-Mode Microplate Reader, purchased from Molecular Devices.
In a 96-well plate, 40 μL of reaction buffer containing 2× enzyme (IDH2-WT or IDH2-R140Q) and cofactor (NADP or NADPH) was added to each well of the compound group and the DMSO control group, and 40 μL of reaction buffer containing 2× cofactor (NADP or NADPH) was added to each well of the enzyme-free control group.
20 μL of reaction buffer containing 4× compound to be tested was added to each well of the compound group. The compound was pre-formulated into 200× mother liquor with 100% DMSO; in the final reaction system, the concentration of DMSO was 0.5%. 20 μL of reaction buffer containing DMSO was added to each well of the DMSO control group; in the final reaction system, the concentration of DMSO was 0.5%.
The compound was mixed well with the enzyme and cofactor, and pre-incubated at room temperature for 16 h;
20 μL of reaction buffer containing 4× reaction substrate was added to each well. After mixed uniformly, the mixture was reacted at room temperature for 1 h.
3× termination and detection solution (it was prepared with reaction buffer, the final concentration of Diaphorase was 0.015 mg/mL, and the final concentration of Resazurin was 0.03 mM) was prepared. 40 μL of 3× termination and detection solution was added to each well of the enzyme reaction system. After mixed uniformly, the mixture was incubated at room temperature for 10 min;
Fluorescence values of two wells were obtained and averaged and the activity rate (Activity %) was calculated. The calculation formula: Activity %=(Measured data−Subtract background)/(DMSO Control−Subtract background)×100, wherein “Measured data” is fluorescence value of the compound in the pre-incubated wells, “Subtract background” is the fluorescence value of the enzyme-free control wells, and “DMSO Control” is the fluorescence value in the DMSO pre-incubated wells. Data was processed by GraphPad Prism v5.0 software and fitted to obtain IC50.
Background: Resazurin is reduced to fluorescent resorufin, in cell work by metabolically active cells.
On to `OC1CCCN(c2nc(Nc3ccnc(C(F)(F)F)c3)nc(-c3cccc(C(F)(F)F)n3)n2)C1` (stereo in doubt) [Example 9, 4-((R)-3-hydroxypiperidin-1-yl)-6-(6-(trifluoromethyl)pyridin-2-yl)-N-(2-(trifluoromethyl)pyridin-4-yl)-1,3,5-triazin-2-amine], for which the concentration for half-maximal inhibition (IC50) worked out at 22 nM.

With `FC(F)(F)c1cc(Nc2nc(-c3cccc(C(F)(F)F)n3)nc(N3CCNCC3)n2)ccn1` [Example 5, 4-(Piperazin-1-yl)-6-(6-(trifluoromethyl)pyridin-2-yl)-N-(2-(trifluoromethyl)pyridin-4-yl)-1,3,5-triazin-2-amine], the IC50 worked out at 25 nM.

Take `FC(F)(F)c1cc(Nc2nc(-c3cccc(C(F)(F)F)n3)nc(N3CCCC(C(F)(F)F)C3)n2)ccn1` (stereo not drawn) [Example 7, 4-(3-(Trifluoromethyl)piperidin-1-yl)-6-(6-(trifluoromethyl)pyridin-2-yl)-N-(2-(trifluoromethyl)pyridin-4-yl)-1,3,5-triazin-2-amine]: the concentration for half-maximal inhibition (IC50) is 20 nM.

As to `O=S1(=O)CCN(c2nc(Nc3ccnc(C(F)(F)F)c3)nc(-c3cccc(C(F)(F)F)n3)n2)CN1` [Example 8], the IC50 was 18 nM.

As to `O[C@H]1CCCN(c2nc(Nc3ccnc(C(F)(F)F)c3)nc(-c3cccc(C(F)(F)F)n3)n2)C1` [Example 10, 4-((S)-3-hydroxypiperidin-1-yl)-6-(6-(trifluoromethyl)pyridin-2-yl)-N-(2-(trifluoromethyl)pyridin-4-yl)-1,3,5-triazin-2-amine], the half-maximal inhibitory concentration (IC50) amounted to 19 nM.

On to `FC1CCCN(c2nc(Nc3ccnc(C(F)(F)F)c3)nc(-c3cccc(C(F)(F)F)n3)n2)C1` (stereo not drawn) [Example 11, 4-(3-Fluoropiperidin-1-yl)-6-(6-(trifluoromethyl)pyridin-2-yl)-N-(2-(trifluoromethyl)pyridin-4-yl)-1,3,5-triazin-2-amine], for which the IC50 is 14 nM.

As to `N#CC1CCCN(c2nc(Nc3ccnc(C(F)(F)F)c3)nc(-c3cccc(C(F)(F)F)n3)n2)C1` (stereo not drawn) [Example 12, 4-(3-Cyanopiperidin-1-yl)-6-(6-(trifluoromethyl)pyridin-2-yl)-N-(2-(trifluoromethyl)pyridin-4-yl)-1,3,5-triazin-2-amine], the half-inhibitory concentration (IC50) was 25 nM.

Take `FC(F)(F)c1cc(Nc2nc(-c3cccc(C(F)(F)F)n3)nc(C3CCCCN3)n2)ccn1` (stereo not drawn) [Example 13, 4-(Piperidin-2-yl)-6-(6-(trifluoromethyl)pyridin-2-yl)-N-(2-(trifluoromethyl)pyridin-4-yl)-1,3,5-triazin-2-amine]: the half-inhibitory concentration (IC50) was found to be 15 nM.

Take `FC1(F)CCN(c2nc(Nc3ccnc(C(F)(F)F)c3)nc(-c3cccc(C(F)(F)F)n3)n2)C1` [Example 15, 4-(3,3-Difluoropyrrolidin-1-yl)-6-(6-(trifluoromethyl)pyridin-2-yl)-N-(2-(trifluoromethyl)pyridin-4-yl)-1,3,5-triazin-2-amine]: the half-maximal inhibitory concentration (IC50) was found to be 18 nM.

As for `O[C@@H]1CCN(c2nc(Nc3ccnc(C(F)(F)F)c3)nc(-c3cccc(C(F)(F)F)n3)n2)C1` [Example 17, 4-((R)-3-hydroxypyrrolidin-1-yl)-6-(6-(trifluoromethyl)pyridin-2-yl)-N-(2-(trifluoromethyl)pyridin-4-yl)-1,3,5-triazin-2-amine], the IC50 was 23 nM.

With `O[C@H]1CCN(c2nc(Nc3ccnc(C(F)(F)F)c3)nc(-c3cccc(C(F)(F)F)n3)n2)C1` [Example 18, 4-((S)-3-hydroxypyrrolidin-1-yl)-6-(6-(trifluoromethyl)pyridin-2-yl)-N-(2-(trifluoromethyl)pyridin-4-yl)-1,3,5-triazin-2-amine], the half-inhibitory concentration (IC50) came to 26 nM.

Consider `FC1CCN(c2nc(Nc3ccnc(C(F)(F)F)c3)nc(-c3cccc(C(F)(F)F)n3)n2)CC1` [Example 19, 4-(4-Fluoropiperidin-1-yl)-6-(6-(trifluoromethyl)pyridin-2-yl)-N-(2-(trifluoromethyl)pyridin-4-yl)-1,3,5-triazin-2-amine], for which the half-inhibitory concentration (IC50) came out at 14 nM.

Take `OC1(C(F)(F)F)CCN(c2nc(Nc3ccnc(C(F)(F)F)c3)nc(-c3cccc(C(F)(F)F)n3)n2)CC1` [Example 21, 4-(4-Trifluoromethyl-4-hydroxypiperidin-1-yl)-6-(6-(trifluoromethyl)pyridin-2-yl)-N-(2-(trifluoromethyl)pyridin-4-yl)-1,3,5-triazin-2-amine]: the concentration for half-maximal inhibition (IC50) was determined as 25 nM.

Consider `FC1(F)CC=C(c2nc(Nc3ccnc(C(F)(F)F)c3)nc(-c3cccc(C(F)(F)F)n3)n2)CC1` [Example 25, 4-(4,4-Difluorocyclohexyl-1-en-1-yl)-6-(6-(trifluoromethyl)pyridin-2-yl)-N-(2-(trifluoromethyl)pyridin-4-yl)-1,3,5-triazin-2-amine], for which the half-maximal inhibitory concentration (IC50) is 15 nM.

As to `FC1(F)CCC(c2nc(Nc3ccnc(C(F)(F)F)c3)nc(-c3cccc(C(F)(F)F)n3)n2)CC1` [Example 26, 4-(4,4-Difluorocyclohexyl)-6-(6-(trifluoromethyl)pyridin-2-yl)-N-(2-(trifluoromethyl)pyridin-4-yl)-1,3,5-triazin-2-amine], the IC50 is 21 nM.

On to `CC(C)(O)C1CN(c2nc(Nc3ccnc(C(F)(F)F)c3)nc(-c3cccc(C(F)(F)F)n3)n2)C1` [Example 48, 4-(3-(2-propyl-2-ol)azetidin-1-yl)-6-(6-(trifluoromethyl)pyridin-2-yl)-N-(2-(trifluoromethyl)pyridin-4-yl)-1,3,5-triazin-2-amine], for which the IC50 worked out at 19 nM.

For `FC(F)(F)c1cc(Nc2nc(-c3cccc(C(F)(F)F)n3)nc(N3CCCCC3)n2)ccn1` [Example 50, 4-(piperidin-1-yl)-6-(6-(trifluoromethyl)pyridin-2-yl)-N-(2-(trifluoromethyl)pyridin-4-yl)-1,3,5-triazin-2-amine], the concentration for half-maximal inhibition (IC50) amounted to 22 nM.

In the case of `N#C[C@@H]1CCN(c2nc(Nc3ccnc(C(F)(F)F)c3)nc(-c3cccc(C(F)(F)F)n3)n2)C1` [Example 52, 4-((R)-3-cyanopyrrolidin-1-yl)-6-(6-(trifluoromethyl)pyridin-2-yl)-N-(2-(trifluoromethyl)pyridin-4-yl)-1,3,5-triazin-2-amine], the IC50 was 23 nM.
